Data reported in patent US20260217703A1, “INHIBITORS OF a-HEMOL YSIN OF STAPHYLOCOCCUS AUREUS” (HELMHOLTZ-ZENTRUM FÜR INFEKTIONSFORSCHUNG GMBH, priority 2022, published 2026).

Experiments:
[1] = target: hemolysin alpha from Staphylococcus aureus (Staphylococcus aureus, UniProt P09616); assay: cell-based
[2] = target: S. aureus Alpha hemolysin (Staphylococcus aureus, UniProt P09616); assay: cell-based
S. aureus Alpha hemolysin, sequence (P09616 27-319 limits assumed): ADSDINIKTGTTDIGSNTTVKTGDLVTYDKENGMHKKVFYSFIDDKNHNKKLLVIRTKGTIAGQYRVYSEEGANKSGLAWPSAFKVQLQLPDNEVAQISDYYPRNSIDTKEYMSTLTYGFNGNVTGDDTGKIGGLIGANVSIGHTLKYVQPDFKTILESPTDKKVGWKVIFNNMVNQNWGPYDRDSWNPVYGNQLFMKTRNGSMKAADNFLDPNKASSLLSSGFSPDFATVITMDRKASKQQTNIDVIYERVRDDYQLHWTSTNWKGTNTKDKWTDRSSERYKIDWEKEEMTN

hemolysin alpha from Staphylococcus aureus, sequence (P09616 27-319 limits assumed): as above

Row | Structure (SMILES) | IC50 [1] [nM] | IC50 [2] [nM]
1 | Cc1nc2cc(-c3ccc(NS(=O)(=O)c4nc5[nH]c(=O)c(=O)[nH]c5cc4C)cc3Cl)cnc2o1 [Compound 39, N-(3-chloro-4-(2-methyloxazolo[5,4-b]pyridin-6-yl)phenyl)-7-methyl-2,3-dioxo-1,2,3,4-tetrahydropyrido[2,3-b]pyrazine-6-sulfonamide] | < 30 | 30 to 100
2 | Cc1nc2cc(-c3ccc(NS(=O)(=O)c4nc5[nH]c(=O)c(=O)[nH]c5cc4C)cc3C)ccc2o1 [Compound 40, 7-methyl-N-(3-methyl-4-(2-methylbenzo[d]oxazol-5-yl)phenyl)-2,3-dioxo-1,2,3,4-tetrahydropyrido[2,3-b]pyrazine-6-sulfonamide] | < 30 | 30 to 100
3 | Cc1cc2[nH]c(=O)c(=O)[nH]c2nc1S(=O)(=O)Nc1ccc(-c2ccc3oc(C4CC4)nc3c2)c(Cl)c1 [Compound 41, N-(3-chloro-4-(2-cyclopropylbenzo[d]oxazol-5-yl)phenyl)-7-methyl-2,3-dioxo-1,2,3,4-tetrahydropyrido[2,3-b]pyrazine-6-sulfonamide] | < 30 | 30 to 100
